According to patent US12606528B2, “Methods and materials for inhibiting NF-kB activity” (University of Pittsburgh - Of the Commonwealth System of …, priority 2019, dated 2026):
Like-named read-outs stand apart in the source and are kept apart here.

What was measured:
NF-κB = NF-κB assay: THP1-NF-κB-LUC cells, LPS-stimulated secreted luciferase; type: cell-based; conditions: THP1-NF-κB-LUC cells, read-out: IC50 (NF-κB assay)
How it was run: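 THP1-NF-κB-LUC cells (25k/well) were pretreated with compounds for 2 h, then stimulated with LPS (10 ng/mL) for 18 h. Secreted luciferase was measured and normalized to vehicle, and IC50 was fitted from the concentration series.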

TNF release = assay: TNF assay: TNF release from LPS-stimulated human PBMCs (TNF ELISA); type: cell-based; conditions: read-out: IC50 (TNF assay)
How it was run: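 Human PBMCs at 10k/well pretreated with compound dilutions 2 h, then stimulated with LPS (10 ng/mL) for 18 h. TNF in supernatants quantified by ELISA; IC50 for inhibition of TNF release fitted from concentration–response.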

[1] = compounds 2 hours before LPS (10 ng/mL) for 18 hours, secreted luciferase
[2] = PBMC, human PBMCs, compounds 2 hours before LPS (10 ng/ml) for 18 hours, supernatant TNF ELISA
[3] = PBMC, LPS-stimulated human PBMCs, TNF ELISA

| SMILES | IC50 (NF-κB; [1]) [nM] | IC50 (TNF release; [2]) [nM] | IC50 (NF-κB; LPS-stimulated) [nM] | IC50 (TNF release; [3]) [nM] | IC50 (TNF release; human PBMCs, compounds 2 hours before LPS (10 ng/ml) for 18 hours, supernatant TNF ELISA) [nM] |
| --- | --- | --- | --- | --- | --- |
| CC(C)CC1Oc2cc(S(=O)(=O)Nc3ccc(OC(F)(F)F)cc3)c(Br)cc2NC1=O (stereo not shown) [BC19758] | 100 to 1000 | > 10000 | – | – | – |
| CN1CCN(c2ccc3nc(-c4ccc(F)cc4)c(-c4ccc(F)cc4)nc3c2)CC1 [BC19510] | – | – | 100 to 1000 | > 10000 | – |
| COCCS(=O)(=O)c1sc(-c2cccc(F)c2)nc1S(=O)(=O)c1ccc(F)cc1 [BC19587] | – | – | 1000 to 10000 | 1000 to 10000 | – |
| CC(C)S(=O)(=O)[C@H]1CN(C2CCOCC2)C[C@@H]1S(=O)(=O)c1ccc(F)cc1 (racemic) [BC19684] | – | – | > 10000 | > 10000 | – |
| CC(C)[S+]([O-])c1sc(-c2cccc(F)c2)nc1S(=O)(=O)c1ccc(Cl)cc1 (stereo not shown) [BC19620] | – | – | > 10000 | > 10000 | – |
| O=C1NCCOc2c1cc(Br)cc2S(=O)(=O)Nc1ccc(F)cc1F [BC19608] | – | – | 1000 to 10000 | > 10000 | – |
| Cn1c(-c2ccccc2)nc(S(=O)(=O)c2ccc(F)cc2)c1[S+]([O-])CC1CC1 (stereo not shown) [BC19602] | – | – | > 10000 | > 10000 | – |
| O=C(O)c1cccc2nc(-c3ccc(F)cc3)c(-c3ccc(F)cc3)nc12 [BC19320] | – | – | > 10000 | > 10000 | – |
| CC(C)CS(=O)(=O)c1oc(-c2ccccc2)nc1S(=O)(=O)c1ccc(F)c(F)c1 [BC19275] | – | – | < 100 | < 100 | – |
| CCOc1ccc(NS(=O)(=O)c2cc(Br)cc3c2OCC(=O)N3)cc1 [BC19173] | < 100 | > 10000 | – | – | – |
| O=c1[nH]ccc2cc(S(=O)(=O)c3ccc(Cl)cc3)ccc12 [BC19516] | > 10000 | > 10000 | – | – | – |
| COc1ccc(NS(=O)(=O)c2cc(Cl)cc3c2OC(C)C(=O)N3)cc1 (stereo not shown) [BC19707] | < 100 | > 10000 | – | – | – |
| O=C1COc2cc(S(=O)(=O)NCc3ccc(OC(F)(F)F)cc3)c(Br)cc2N1 [BC19392] | > 10000 | > 10000 | – | – | – |
| CCC1Oc2c(cc(Cl)cc2S(=O)(=O)Nc2ccc(F)cc2Cl)NC1=O (stereo not shown) [BC19756] | < 100 | > 10000 | – | – | – |
| Cc1ccc(NS(=O)(=O)c2c(C)c(Cl)cc3c2OCC(=O)N3)cc1 [BC19432] | 100 to 1000 | > 10000 | – | – | – |
| C#CC(=O)Nc1ccc2nc(-c3ccc(F)cc3)c(-c3ccc(F)cc3)nc2c1 [BC19397] | – | – | < 100 | 100 to 1000 | – |
| CCc1ccc(NS(=O)(=O)c2cc3c(cc2Br)NC(=O)CCO3)cc1 [BC19690] | – | – | > 10000 | > 10000 | – |
| O=S(=O)(CC1CC1)c1sc(-c2ccc(Cl)cc2)nc1S(=O)(=O)c1ccc(F)cc1 [BC19539] | – | – | 1000 to 10000 | 1000 to 10000 | – |
| CN1CCN(C(=O)c2ccc3nc(-c4ccc(F)cc4)c(S(=O)(=O)c4cccc(F)c4)nc3c2)CC1 [BC19395] | – | – | 100 to 1000 | < 100 | – |

| SMILES | IC50 (NF-κB; [1]) [nM] | IC50 (TNF release; [2]) [nM] | IC50 (NF-κB; LPS-stimulated) [nM] | IC50 (TNF release; [3]) [nM] | IC50 (TNF release; human PBMCs, compounds 2 hours before LPS (10 ng/ml) for 18 hours, supernatant TNF ELISA) [nM] |
| --- | --- | --- | --- | --- | --- |
| CC(C)[S+]([O-])c1oc(-c2cccc(F)c2)nc1S(=O)(=O)c1ccc(Cl)cc1 (stereo not shown) [BC19346] | – | – | < 100 | < 100 | – |
| CC1Oc2cc(S(=O)(=O)Nc3ccc(F)cc3F)c(Cl)cc2NC1=O (stereo not shown) [BC19709] | < 100 | > 10000 | – | – | – |
| CC(C)C[S+]([O-])c1oc(-c2ccc(Cl)cc2)nc1S(=O)(=O)c1ccc(Cl)cc1 (stereo not shown) [BC19463] | – | – | < 100 | 100 to 1000 | – |
| COCC[S+]([O-])c1sc(-c2cccc(F)c2)nc1S(=O)(=O)c1ccc(F)cc1 (stereo not shown) [BC19599] | – | – | 1000 to 10000 | 1000 to 10000 | – |
| CCC[S+]([O-])c1oc(-c2cccc(F)c2)nc1S(=O)(=O)c1ccc(Cl)cc1 (stereo not shown) [BC19344] | – | – | 100 to 1000 | 100 to 1000 | – |
| Cc1ccc(S(=O)(=O)c2c(O)[nH]c3ncccc3c2=O)cc1F [BC19322] | 1000 to 10000 | > 10000 | – | – | – |
| Cc1ccc(Cl)cc1NC(=O)CS(=O)(=O)c1[nH]c(-c2ccccc2)nc1S(=O)(=O)c1ccccc1 [BC19335] | – | – | > 10000 | > 10000 | – |
| CCc1cccc(NS(=O)(=O)c2cc3c(cc2Cl)NC(=O)C(C)O3)c1 (stereo not shown) [BC19711] | < 100 | > 10000 | – | – | – |
| Cc1cnc(-c2ccc3nc(-c4ccc(F)cc4)c(-c4ccc(F)cc4)nc3c2)o1 [BC19140] | – | – | 1000 to 10000 | > 10000 | – |
| CCC1Oc2cc(S(=O)(=O)NC3CCCCC3)c(Br)cc2NC1=O (stereo not shown) [BC19223] | > 10000 | > 10000 | – | – | – |
| COCC[S+]([O-])c1sc(C2CCCCC2)nc1S(=O)(=O)c1ccc(Cl)cc1 (stereo not shown) [BC19642] | – | – | > 10000 | > 10000 | – |
| Cc1ccc(S(=O)(=O)c2nc3cc(C(=O)N4CCN(C)CC4)ccc3nc2-c2ccc(F)cc2)cc1 [BC19308] | – | – | 100 to 1000 | < 100 | – |
| CS(=O)(=O)c1sc(-c2cccc(F)c2)nc1S(=O)(=O)c1ccc(F)cc1 [BC19596] | – | – | 100 to 1000 | 1000 to 10000 | – |
| CC1Oc2cc(S(=O)(=O)Nc3ccc(F)c(F)c3)c(Br)cc2N(C)C1=O (stereo not shown) [BC19788] | < 100 | – | – | – | > 10000 |
| O=C(Nc1ccc2nc(-c3ccc(F)cc3)c(-c3ccc(F)cc3)nc2c1)C1CCNCC1 [BC19251] | – | – | < 100 | 1000 to 10000 | – |
| O=c1c(S(=O)(=O)c2ccc(F)c(F)c2)c[nH]c2c(F)ccc(F)c12 [BC19252] | < 100 | > 10000 | – | – | – |
| CCC1Oc2c(cc(Br)cc2S(=O)(=O)NCCc2ccc(OC(F)(F)F)cc2)NC1=O (stereo not shown) [BC19376] | 1000 to 10000 | > 10000 | – | – | – |
| CS(=O)(=O)c1cc2c(c(S(=O)(=O)Nc3ccc(F)cc3F)c1)OCC(=O)N2 [BC19425] | < 100 | > 10000 | – | – | – |
| CS(=O)(=O)c1cc2c(c(S(=O)(=O)Nc3ccccc3)c1)OCC(=O)N2 [BC19482] | 100 to 1000 | > 10000 | – | – | – |

| SMILES | IC50 (NF-κB; [1]) [nM] | IC50 (TNF release; [2]) [nM] | IC50 (NF-κB; LPS-stimulated) [nM] | IC50 (TNF release; [3]) [nM] | IC50 (TNF release; human PBMCs, compounds 2 hours before LPS (10 ng/ml) for 18 hours, supernatant TNF ELISA) [nM] |
| --- | --- | --- | --- | --- | --- |
| O=S(=O)(c1ccc(Cl)cc1)c1nc(-c2cccc(F)c2)sc1[S+]([O-])CC1CC1 (stereo not shown) [BC19478] | – | – | > 10000 | 1000 to 10000 | – |
| Cc1ccc(S(=O)(=O)c2ccc3c(=O)[nH]ccc3c2)cc1 [BC19518] | > 10000 | > 10000 | – | – | – |
| CC1Oc2cc(S(=O)(=O)Nc3ccc(F)cc3F)c(Br)cc2N(C)C1=O (stereo not shown) [BC19799] | 100 to 1000 | 1000 to 10000 | – | – | – |
| CS(=O)(=O)c1oc(-c2cccc(F)c2)nc1S(=O)(=O)c1ccc(Cl)cc1 [BC19343] | – | – | 1000 to 10000 | < 100 | – |
| CCC1Oc2c(cc(Br)cc2S(=O)(=O)Nc2ccc(C)cc2)NC1=O (stereo not shown) [BC19234] | < 100 | 1000 to 10000 | – | – | – |
| CC1Oc2c(cc(Cl)cc2S(=O)(=O)Nc2cccc(Cl)c2)NC1=O (stereo not shown) [BC19716] | < 100 | 1000 to 10000 | – | – | – |
| O=C1NCCOc2c1cc(Br)cc2S(=O)(=O)Nc1cccc(F)c1 [BC19610] | – | – | 100 to 1000 | > 10000 | – |
| CCC[S+]([O-])c1[nH]c(-c2ccccc2)nc1S(=O)(=O)c1ccc(F)cc1 (stereo not shown) [BC19585] | – | – | 1000 to 10000 | > 10000 | – |
| CCC[S+]([O-])c1snc(-c2ccc(F)cc2)c1S(=O)(=O)c1ccc(Cl)cc1 (stereo not shown) [BC19681] | – | – | 100 to 1000 | < 100 | – |
| CN1CCN(C(=O)c2ccc3nc(-c4ccc(F)cc4)c(-c4ccc(Cl)cc4)nc3c2)CC1 [BC19317] | – | – | < 100 | > 10000 | – |
| COCC[S+]([O-])c1sc(-c2ccccc2)nc1S(=O)(=O)c1ccc(Cl)cc1 (stereo not shown) [BC19526] | – | – | 1000 to 10000 | 1000 to 10000 | – |
| Fc1ccc(-c2nc3ccc(-c4cn(CCN5CCOCC5)nn4)cc3nc2-c2ccc(F)cc2)cc1 [BC19240] | – | – | < 100 | > 10000 | – |
| CC(C)NC(=O)N1c2cc(S(=O)(=O)N3CCCC3)ccc2NC(=O)C1C (stereo not shown) [BC19298] | – | – | < 100 | > 10000 | – |
| CCC1Oc2c(cc(Cl)cc2S(=O)(=O)Nc2ccc(F)cc2)NC1=O (stereo not shown) [BC19732] | < 100 | 1000 to 10000 | – | – | – |
| CS(=O)(=O)c1cncc(-c2ccc3nc(-c4ccc(F)cc4)c(-c4ccc(F)cc4)nc3c2)c1 [BC19243] | – | – | 100 to 1000 | > 10000 | – |
| Cn1cc(-c2ccc3nc(-c4ccc(F)cc4)c(-c4ccc(F)cc4)nc3c2)nn1 [BC19148] | – | – | < 100 | > 10000 | – |
| CC(C)CC1Oc2cc(S(=O)(=O)Nc3ccc(C(C)C)cc3)c(Br)cc2NC1=O (stereo not shown) [BC19766] | 1000 to 10000 | 1000 to 10000 | – | – | – |
| CCS(=O)(=O)c1cc2c(c(S(=O)(=O)Nc3ccccc3)c1)OCC(=O)N2 [BC19437] | < 100 | > 10000 | – | – | – |
